# Key:
# [1] = molecular target: T1, N-acylethanolamine-hydrolyzing acid amidase (Homo sapiens, UniProt Q02083); experiment: Inhibition of human NAAA using N-(4-methyl coumarin)-palmitamide as fluorogenic substrate preincubated for 90 mins followed by substrate addition by fluorescence assay
# T1 sequence (Q02083 whole entry): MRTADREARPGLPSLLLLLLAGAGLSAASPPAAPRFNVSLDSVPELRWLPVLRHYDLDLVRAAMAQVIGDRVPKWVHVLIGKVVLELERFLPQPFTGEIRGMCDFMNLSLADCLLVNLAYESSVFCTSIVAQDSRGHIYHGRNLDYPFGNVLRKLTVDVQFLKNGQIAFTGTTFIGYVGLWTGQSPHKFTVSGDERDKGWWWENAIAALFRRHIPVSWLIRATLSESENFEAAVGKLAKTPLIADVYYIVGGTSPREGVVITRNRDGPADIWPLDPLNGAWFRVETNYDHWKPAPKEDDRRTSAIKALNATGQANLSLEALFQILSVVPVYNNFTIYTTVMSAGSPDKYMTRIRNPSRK
# [2] = Half life in human liver microsomes at 1 uM in presence of NADPH by LC-MS/MS analysis; format: ADME, Microsome
# [3] = Half life in rat liver microsomes at 1 uM in presence of NADPH by LC-MS/MS analysis; format: ADME, Microsome
# [4] = Half life in mouse liver microsomes at 1 uM in presence of NADPH by LC-MS/MS analysis; format: ADME, Microsome
SMILES,IC50 [1],also measured
COc1ccc(N2CCC(C(=O)N[C@H]3C[C@@H](N=C=S)C3)CC2)cc1,137 nM,–
"COc1ccc(-c2ccc(CO[C@H]3CC[C@@H](N=C=S)C3)nc2)cc1F (single isomer, unassigned)",1450 nM,–
COc1ccc(-c2ccc(C(=O)N[C@]34C[C@](N=C=S)(C3)C4)c(F)c2)cc1,1230 nM,–
Cc1ccc(-c2ccc(CO[C@H]3C[C@H](N=C=S)C3)cc2)cc1,580 nM,–
COc1ccc(-c2ccc(O[C@H]3C[C@@H](N=C=S)C3)cc2)cc1F,35.9 nM,–
COc1ccc(-c2ccc(CN3CC(N=C=S)C3)c(F)c2)cc1F,176 nM,–
"COc1ccc(-c2ccc(COC3C[C@@H](N=C=S)C3(C)C)nc2)cc1F (single isomer, unassigned)",246 nM,–
COc1ccc(-c2ccc(CO[C@H]3C[C@@H](N=C=S)C3)nc2)nc1,30.4 nM,–
COc1cc(-c2ccc(CO[C@H]3C[C@@H](N=C=S)C3)c(F)c2)ccc1F,155 nM,–
COc1ccc(-c2cnc(C(=O)N[C@H]3C[C@@H](N=C=S)C3)cn2)cc1,853 nM,–
S=C=N[C@H]1C[C@H](OCc2ccc(-c3ccccc3)cc2)C1,4300 nM,–
COc1ccc(Oc2ccc(C(=O)N[C@H]3C[C@@H](N=C=S)C3)cc2)cc1,1420 nM,–
Fc1cc(-c2cccc(OCc3ccccc3)c2)ccc1CO[C@H]1C[C@@H](N=C=S)C1,99.8 nM,–
COc1ccc(-c2ccc(C(C)O[C@H]3C[C@@H](N=C=S)C3)c(F)c2)cc1F (stereo not given in full),14.6 nM,–
S=C=NC1CN(CCCCCCc2ccccc2)C1,8.3 nM,–
COc1ccc(C2CC(C(=O)N[C@H]3C[C@@H](N=C=S)C3)C2)cc1 (stereo not given in full),55.9 nM,–
COc1ccc(-c2ccc(CO[C@]3(C)C[C@H](N=C=S)C3)c(F)c2)cc1F,480 nM,–

SMILES,IC50 [1],also measured
COc1ccc(C23CC(C(=O)N[C@H]4C[C@@H](N=C=S)C4)(C2)C3)cc1,128 nM,–
COc1cnc(-c2ccc(CO[C@H]3C[C@@H](N=C=S)C3)[n+]([O-])c2)cc1F,23.5 nM,–
FC1(F)Oc2ccc(-c3ccc(CO[C@H]4C[C@@H](N=C=S)C4)nc3)cc2O1,171 nM,–
COc1ccc(-c2ccc(CO[C@H]3CC[C@@H](N=C=S)CC3)cc2)cc1F,386 nM,–
CCOc1ccc(-c2ccc(CO[C@H]3C[C@@H](N=C=S)C3)c(F)c2)cc1F,69.2 nM,–
COc1ccc(-c2noc(CO[C@H]3C[C@@H](N=C=S)C3)n2)cc1,493 nM,–
CN(Cc1ccc(-c2ccccc2)cc1)[C@H]1C[C@@H](N=C=S)C1,1920 nM,half-life at 1 µM [2]: 14.7 min; half-life at 1 µM [3]: 4.4 min; half-life at 1 µM [4]: 5.1 min
COc1ccc(CCCC(=O)N[C@H]2C[C@@H](N=C=S)C2)cc1,62 nM,–
COc1ccc(-c2cc(CO[C@H]3C[C@@H](N=C=S)C3)on2)cc1,43.6 nM,–
COc1ccc(-c2ccc3c(c2)CN([C@H]2C[C@@H](N=C=S)C2)C3)cc1F,74.2 nM,–
COc1ccc(-c2cc(C(=O)N[C@H]3C[C@@H](N=C=S)C3)on2)cc1,91.5 nM,–
Cn1cc(-c2ccc(CO[C@H]3C[C@@H](N=C=S)C3)c(F)c2)cn1,517 nM,–
COc1ccc(-c2ccc(OC(=O)N[C@H]3C[C@@H](N=C=S)C3)cc2)cc1,7 nM,half-life at 1 µM [2]: 6.4 min; half-life at 1 µM [3]: 5 min; half-life at 1 µM [4]: 6.2 min
Fc1cc(-c2ccc3c(c2)OCC3)ccc1CO[C@H]1C[C@@H](N=C=S)C1,59.3 nM,–
COc1ccc(CCCCCC(=O)N[C@H]2C[C@@H](N=C=S)C2)cc1,22.5 nM,–
COc1ccc(-c2ccc3c(c2)CCN([C@H]2C[C@@H](N=C=S)C2)C3)cc1F,89 nM,–
COc1ccc(-c2ccc3c(c2)CN([C@H]2C[C@@H](N=C=S)C2)CC3)cc1F,356 nM,–

# Reference: ChEMBL document CHEMBL4834430, “Design and Structure-Activity Relationships of Isothiocyanates as Potent and Selective N-Acylethanolamine-Hydrolyzing Acid Amidase Inhibitors” (J Med Chem, 2021)
